What was measured:
Assay in all cases: DiscoverX KinomeScreen competition binding assay (kinase selectivity panel)
[1] = molecular target: T1, panel of ninety-seven kinases (Homo sapiens, UniProt Q96GD4); details: AURKB; screened at 3000 nM
T1 construct: purchased DiscoverX; host or cells: E. coli (BL21-derived, T7 phage display) or HEK-293
In short: (§1)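 Kinases on T7 phage (BL21-derived E. coli host) or DNA-tagged from HEK-293 cells compete between compound and a bead-immobilized biotinylated ligand. Captured kinase is eluted and quantified by qPCR. Compound is tested at 3000 nM (3 μM); binding is reported as % Ctrl, with DMSO as 100% and control compound as 0%.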

[2] = molecular target: T2, panel of ninety-seven kinases (Homo sapiens, UniProt O14965); details: AURKA; screened at 3000 nM
T2 construct: purchased DiscoverX; host or cells: E. coli (BL21-derived, T7 phage display) or HEK-293
In short: as §1

[3] = molecular target: T3, panel of ninety-seven kinases (Homo sapiens, UniProt Q13177); details: PAK2; screened at 3000 nM
T3 construct: purchased DiscoverX; host or cells: E. coli (BL21-derived, T7 phage display) or HEK-293
In short: as §1

[4] = molecular target: T4, panel of ninety-seven kinases (Homo sapiens, UniProt Q13153); details: PAK1; screened at 3000 nM
T4 construct: purchased DiscoverX; host or cells: E. coli (BL21-derived, T7 phage display) or HEK-293
In short: as §1

[5] = molecular target: T5, panel of ninety-seven kinases (Homo sapiens, UniProt P27448); details: MARK3; screened at 3000 nM
T5 construct: purchased DiscoverX; host or cells: E. coli (BL21-derived, T7 phage display) or HEK-293
In short: as §1

[6] = molecular target: T6, panel of ninety-seven kinases (Homo sapiens, UniProt P43403); details: ZAP70; screened at 3000 nM
T6 construct: purchased DiscoverX; host or cells: E. coli (BL21-derived, T7 phage display) or HEK-293
In short: as §1

[7] = molecular target: T7, panel of ninety-seven kinases (Homo sapiens, UniProt P35968); details: KDR; screened at 3000 nM
T7 construct: purchased DiscoverX; host or cells: E. coli (BL21-derived, T7 phage display) or HEK-293
In short: as §1

[8] = molecular target: T8, panel of ninety-seven kinases (Homo sapiens, UniProt Q9UM73); details: ALK; screened at 3000 nM
T8 construct: purchased DiscoverX; host or cells: E. coli (BL21-derived, T7 phage display) or HEK-293
In short: as §1

[9] = molecular target: T9, panel of ninety-seven kinases (Homo sapiens, UniProt P36896); details: ACVR1B; screened at 3000 nM
T9 construct: purchased DiscoverX; host or cells: E. coli (BL21-derived, T7 phage display) or HEK-293
In short: as §1

[10] = molecular target: T10, panel of ninety-seven kinases (Homo sapiens, UniProt Q86UX6); details: STK32C; screened at 3000 nM
T10 construct: purchased DiscoverX; host or cells: E. coli (BL21-derived, T7 phage display) or HEK-293
In short: as §1

[11] = molecular target: T11, panel of ninety-seven kinases (Homo sapiens, UniProt Q16539); details: MAPK14; screened at 3000 nM
T11 construct: purchased DiscoverX; host or cells: E. coli (BL21-derived, T7 phage display) or HEK-293
In short: as §1

[12] = molecular target: T12, panel of ninety-seven kinases (Homo sapiens, UniProt Q06187); details: BTK; screened at 3000 nM
T12 construct: purchased DiscoverX; host or cells: E. coli (BL21-derived, T7 phage display) or HEK-293
In short: as §1

[13] = molecular target: T13, panel of ninety-seven kinases (Homo sapiens, UniProt P04626); details: ERBB2; screened at 3000 nM
T13 construct: purchased DiscoverX; host or cells: E. coli (BL21-derived, T7 phage display) or HEK-293
In short: as §1

[14] = molecular target: T14, panel of ninety-seven kinases (Homo sapiens, UniProt O00750); details: PIK3C2B; screened at 3000 nM
T14 construct: purchased DiscoverX; host or cells: E. coli (BL21-derived, T7 phage display) or HEK-293
In short: as §1

[15] = molecular target: T15, panel of ninety-seven kinases (Homo sapiens, UniProt Q13873); details: BMPR2; screened at 3000 nM
T15 construct: purchased DiscoverX; host or cells: E. coli (BL21-derived, T7 phage display) or HEK-293
In short: as §1

[16] = molecular target: T16, panel of ninety-seven kinases (Homo sapiens, UniProt P53779); details: MAPK10; screened at 3000 nM
T16 construct: purchased DiscoverX; host or cells: E. coli (BL21-derived, T7 phage display) or HEK-293
In short: as §1

[17] = molecular target: T17, panel of ninety-seven kinases (Homo sapiens, UniProt P31751); details: AKT2; screened at 3000 nM
T17 construct: purchased DiscoverX; host or cells: E. coli (BL21-derived, T7 phage display) or HEK-293
In short: as §1

[18] = molecular target: T18, panel of ninety-seven kinases (Homo sapiens, UniProt O60674); details: JAK2; screened at 3000 nM
T18 construct: purchased DiscoverX; host or cells: E. coli (BL21-derived, T7 phage display) or HEK-293
In short: as §1

[19] = molecular target: T19, panel of ninety-seven kinases (Homo sapiens, UniProt Q9H4B4); details: PLK3; screened at 3000 nM
T19 construct: purchased DiscoverX; host or cells: E. coli (BL21-derived, T7 phage display) or HEK-293
In short: as §1

[20] = molecular target: T20, panel of ninety-seven kinases (Homo sapiens, UniProt Q9UPE1); details: SRPK3; screened at 3000 nM
T20 construct: purchased DiscoverX; host or cells: E. coli (BL21-derived, T7 phage display) or HEK-293
In short: as §1

[21] = molecular target: T21, panel of ninety-seven kinases (Homo sapiens, UniProt Q8IYT8); details: ULK2; screened at 3000 nM
T21 construct: purchased DiscoverX; host or cells: E. coli (BL21-derived, T7 phage display) or HEK-293
In short: as §1

[22] = molecular target: T22, panel of ninety-seven kinases (Homo sapiens, UniProt P09619); details: PDGFRB; screened at 3000 nM
T22 construct: purchased DiscoverX; host or cells: E. coli (BL21-derived, T7 phage display) or HEK-293
In short: as §1

T14 sequence (O00750 whole entry): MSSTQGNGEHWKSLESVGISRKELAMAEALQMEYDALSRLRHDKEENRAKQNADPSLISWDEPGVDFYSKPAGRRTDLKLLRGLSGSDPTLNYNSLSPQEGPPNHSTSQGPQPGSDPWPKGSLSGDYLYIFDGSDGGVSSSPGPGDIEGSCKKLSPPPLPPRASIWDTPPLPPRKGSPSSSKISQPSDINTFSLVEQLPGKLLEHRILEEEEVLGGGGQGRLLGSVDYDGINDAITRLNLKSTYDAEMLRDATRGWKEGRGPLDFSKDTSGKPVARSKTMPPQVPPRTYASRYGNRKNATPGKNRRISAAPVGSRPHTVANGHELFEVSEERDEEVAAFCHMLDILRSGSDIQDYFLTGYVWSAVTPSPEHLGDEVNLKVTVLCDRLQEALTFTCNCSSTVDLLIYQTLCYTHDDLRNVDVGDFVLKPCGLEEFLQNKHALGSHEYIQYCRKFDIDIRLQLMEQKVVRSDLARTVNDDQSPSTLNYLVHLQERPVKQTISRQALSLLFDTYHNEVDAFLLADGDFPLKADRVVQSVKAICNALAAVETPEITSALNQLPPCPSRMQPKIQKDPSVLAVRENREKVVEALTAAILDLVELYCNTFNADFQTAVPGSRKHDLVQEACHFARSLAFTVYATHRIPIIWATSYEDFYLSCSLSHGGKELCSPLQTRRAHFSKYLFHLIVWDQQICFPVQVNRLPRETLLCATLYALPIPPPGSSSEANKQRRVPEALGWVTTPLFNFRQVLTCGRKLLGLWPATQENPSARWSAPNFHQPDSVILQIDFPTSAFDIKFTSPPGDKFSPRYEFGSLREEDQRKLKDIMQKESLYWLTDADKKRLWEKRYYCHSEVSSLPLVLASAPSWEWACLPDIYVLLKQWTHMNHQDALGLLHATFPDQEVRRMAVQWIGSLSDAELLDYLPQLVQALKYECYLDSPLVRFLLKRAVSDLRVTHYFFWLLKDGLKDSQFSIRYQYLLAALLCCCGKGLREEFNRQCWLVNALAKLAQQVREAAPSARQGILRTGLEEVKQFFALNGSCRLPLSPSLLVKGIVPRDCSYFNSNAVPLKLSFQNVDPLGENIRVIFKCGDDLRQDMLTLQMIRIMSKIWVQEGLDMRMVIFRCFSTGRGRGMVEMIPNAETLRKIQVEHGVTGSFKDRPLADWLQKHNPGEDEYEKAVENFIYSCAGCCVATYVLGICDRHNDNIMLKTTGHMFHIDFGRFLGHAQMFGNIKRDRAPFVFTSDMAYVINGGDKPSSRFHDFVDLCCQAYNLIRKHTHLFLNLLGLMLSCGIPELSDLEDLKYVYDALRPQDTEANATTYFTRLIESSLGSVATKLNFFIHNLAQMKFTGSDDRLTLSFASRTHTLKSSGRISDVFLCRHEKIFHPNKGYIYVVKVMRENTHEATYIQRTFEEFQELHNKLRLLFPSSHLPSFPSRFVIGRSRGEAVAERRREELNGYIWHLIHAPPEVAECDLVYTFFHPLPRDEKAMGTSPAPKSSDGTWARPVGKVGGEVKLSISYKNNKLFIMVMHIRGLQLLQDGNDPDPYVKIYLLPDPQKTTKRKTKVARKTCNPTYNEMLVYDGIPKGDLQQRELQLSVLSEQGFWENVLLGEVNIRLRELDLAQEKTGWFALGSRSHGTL
T21 sequence (Q8IYT8 whole entry): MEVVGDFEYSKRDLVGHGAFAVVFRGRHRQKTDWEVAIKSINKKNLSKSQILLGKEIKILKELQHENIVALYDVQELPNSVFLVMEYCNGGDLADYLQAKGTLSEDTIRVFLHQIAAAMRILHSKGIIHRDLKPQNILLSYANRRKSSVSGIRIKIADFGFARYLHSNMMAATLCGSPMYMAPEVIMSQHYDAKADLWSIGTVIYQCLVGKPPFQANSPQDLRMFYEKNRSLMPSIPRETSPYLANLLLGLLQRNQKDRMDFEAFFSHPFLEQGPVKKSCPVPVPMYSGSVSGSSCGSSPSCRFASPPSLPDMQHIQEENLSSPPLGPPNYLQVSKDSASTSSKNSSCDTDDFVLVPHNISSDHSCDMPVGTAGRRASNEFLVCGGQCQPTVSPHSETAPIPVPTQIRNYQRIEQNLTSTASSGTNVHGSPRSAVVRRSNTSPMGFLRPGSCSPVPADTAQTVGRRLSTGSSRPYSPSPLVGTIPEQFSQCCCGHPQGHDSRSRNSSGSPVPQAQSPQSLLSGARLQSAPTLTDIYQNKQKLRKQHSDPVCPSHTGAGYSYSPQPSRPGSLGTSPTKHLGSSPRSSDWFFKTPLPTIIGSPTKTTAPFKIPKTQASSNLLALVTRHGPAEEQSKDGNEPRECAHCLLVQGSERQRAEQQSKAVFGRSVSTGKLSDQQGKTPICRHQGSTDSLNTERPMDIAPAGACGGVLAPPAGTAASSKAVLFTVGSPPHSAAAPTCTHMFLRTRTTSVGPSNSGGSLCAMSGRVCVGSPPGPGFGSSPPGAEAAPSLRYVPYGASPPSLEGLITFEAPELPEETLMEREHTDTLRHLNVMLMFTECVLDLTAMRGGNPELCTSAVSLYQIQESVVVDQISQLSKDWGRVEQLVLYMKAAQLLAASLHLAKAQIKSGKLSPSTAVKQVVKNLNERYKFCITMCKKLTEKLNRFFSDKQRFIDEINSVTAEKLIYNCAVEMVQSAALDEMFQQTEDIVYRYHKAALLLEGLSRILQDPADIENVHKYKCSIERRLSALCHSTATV
T17 sequence (P31751 whole entry): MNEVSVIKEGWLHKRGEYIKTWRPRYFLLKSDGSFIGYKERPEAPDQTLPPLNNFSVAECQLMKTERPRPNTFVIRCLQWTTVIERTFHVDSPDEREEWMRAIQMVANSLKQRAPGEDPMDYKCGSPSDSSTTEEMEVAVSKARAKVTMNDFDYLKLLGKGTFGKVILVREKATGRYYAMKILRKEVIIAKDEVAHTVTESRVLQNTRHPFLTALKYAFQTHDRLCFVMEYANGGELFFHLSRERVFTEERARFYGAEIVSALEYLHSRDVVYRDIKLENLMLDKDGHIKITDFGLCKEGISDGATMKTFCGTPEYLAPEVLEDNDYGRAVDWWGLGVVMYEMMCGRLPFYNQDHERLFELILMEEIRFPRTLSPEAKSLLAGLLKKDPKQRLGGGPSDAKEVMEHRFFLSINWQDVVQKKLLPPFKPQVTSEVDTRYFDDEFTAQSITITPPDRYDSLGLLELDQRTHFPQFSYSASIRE
T5 sequence (P27448 whole entry): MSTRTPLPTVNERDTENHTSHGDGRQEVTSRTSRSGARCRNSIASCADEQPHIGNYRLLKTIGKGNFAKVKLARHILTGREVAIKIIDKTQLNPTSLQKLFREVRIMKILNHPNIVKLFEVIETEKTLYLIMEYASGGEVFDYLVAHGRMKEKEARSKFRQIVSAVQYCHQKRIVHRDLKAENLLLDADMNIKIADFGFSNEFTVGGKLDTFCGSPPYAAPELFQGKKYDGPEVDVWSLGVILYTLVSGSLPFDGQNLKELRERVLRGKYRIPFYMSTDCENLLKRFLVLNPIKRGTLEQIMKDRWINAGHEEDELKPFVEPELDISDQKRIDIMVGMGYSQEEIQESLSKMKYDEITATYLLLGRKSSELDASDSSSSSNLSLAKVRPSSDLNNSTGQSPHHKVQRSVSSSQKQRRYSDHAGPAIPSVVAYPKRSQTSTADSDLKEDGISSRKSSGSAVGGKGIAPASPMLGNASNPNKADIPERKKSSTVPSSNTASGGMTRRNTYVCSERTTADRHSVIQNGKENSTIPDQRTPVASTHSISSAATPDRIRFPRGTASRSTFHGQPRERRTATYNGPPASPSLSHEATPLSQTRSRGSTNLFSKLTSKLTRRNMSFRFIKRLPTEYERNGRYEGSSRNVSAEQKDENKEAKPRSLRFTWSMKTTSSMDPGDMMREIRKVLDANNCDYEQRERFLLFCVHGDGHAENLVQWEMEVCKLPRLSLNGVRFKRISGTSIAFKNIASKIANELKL
T12 sequence (Q06187 whole entry): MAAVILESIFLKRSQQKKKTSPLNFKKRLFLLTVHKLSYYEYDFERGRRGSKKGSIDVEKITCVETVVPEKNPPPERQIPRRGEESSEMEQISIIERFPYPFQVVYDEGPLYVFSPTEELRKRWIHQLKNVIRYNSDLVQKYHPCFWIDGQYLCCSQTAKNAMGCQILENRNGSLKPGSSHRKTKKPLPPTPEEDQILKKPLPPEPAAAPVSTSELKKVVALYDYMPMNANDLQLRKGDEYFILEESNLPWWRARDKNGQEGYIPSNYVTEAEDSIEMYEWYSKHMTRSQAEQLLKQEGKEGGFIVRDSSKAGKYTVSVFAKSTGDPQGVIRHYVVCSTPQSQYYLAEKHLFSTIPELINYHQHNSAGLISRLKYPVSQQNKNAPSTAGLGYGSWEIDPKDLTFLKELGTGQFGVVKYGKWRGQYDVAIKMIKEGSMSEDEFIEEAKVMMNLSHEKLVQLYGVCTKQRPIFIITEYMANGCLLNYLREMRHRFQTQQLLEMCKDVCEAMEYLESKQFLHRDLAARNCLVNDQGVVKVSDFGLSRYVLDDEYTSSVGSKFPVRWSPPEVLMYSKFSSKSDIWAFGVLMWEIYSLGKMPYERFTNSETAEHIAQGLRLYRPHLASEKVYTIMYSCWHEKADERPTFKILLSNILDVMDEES
T16 sequence (P53779 whole entry): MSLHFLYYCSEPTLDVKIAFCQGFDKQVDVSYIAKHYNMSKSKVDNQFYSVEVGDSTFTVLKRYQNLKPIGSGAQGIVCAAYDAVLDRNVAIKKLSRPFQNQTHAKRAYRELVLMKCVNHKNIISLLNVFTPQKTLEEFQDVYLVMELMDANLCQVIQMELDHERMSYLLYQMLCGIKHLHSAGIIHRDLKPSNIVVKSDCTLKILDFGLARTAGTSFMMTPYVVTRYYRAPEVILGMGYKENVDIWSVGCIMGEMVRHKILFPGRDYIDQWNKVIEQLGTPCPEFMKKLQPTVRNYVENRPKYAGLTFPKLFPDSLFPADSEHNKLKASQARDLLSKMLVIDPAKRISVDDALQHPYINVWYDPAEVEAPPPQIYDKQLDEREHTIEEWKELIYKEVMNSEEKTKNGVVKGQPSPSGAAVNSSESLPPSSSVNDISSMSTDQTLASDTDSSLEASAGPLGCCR

Question: Which “% Ctrl @ 3 μM” value [1] does the source give for `CN(C)CCNC(=O)c1ccc(-c2ccc(-c3ccc(Cl)cc3)n2-c2ccccc2C(F)(F)F)cc1` (single isomer, unassigned) [Atropisomer A-2] here?
Answer: Its value is 84 % Ctrl.

Question: And the “% Ctrl @ 3 μM” value [2]?
Answer: The value was 98 % Ctrl.

Question: And the “% Ctrl @ 3 μM” value [3]?
Answer: Its value is 100 % Ctrl.

Question: And the “% Ctrl @ 3 μM” value [4]?
Answer: Its value is 87 % Ctrl.

Question: And the “% Ctrl @ 3 μM” value [5]?
Answer: Its value is 100 % Ctrl.

Question: And the “% Ctrl @ 3 μM” value [6]?
Answer: Its value is 92 % Ctrl.

Question: What about the “% Ctrl @ 3 μM” value [7] of the same molecule?
Answer: The value was 100 % Ctrl.

Question: And the “% Ctrl @ 3 μM” value [8]?
Answer: Its value is 89 % Ctrl.

Question: And the “% Ctrl @ 3 μM” value [9]?
Answer: Its value is 96 % Ctrl.

Question: What about the “% Ctrl @ 3 μM” value [10] of the same molecule?
Answer: Its value is 100 % Ctrl.

Question: And the “% Ctrl @ 3 μM” value [11]?
Answer: Its value is 100 % Ctrl.

Question: What about the “% Ctrl @ 3 μM” value [12] of the same molecule?
Answer: Its value is 94 % Ctrl.

Question: And the “% Ctrl @ 3 μM” value [13]?
Answer: Its value is 66 % Ctrl.

Question: And the “% Ctrl @ 3 μM” value [14]?
Answer: The value was 100 % Ctrl.

Question: And the “% Ctrl @ 3 μM” value [15]?
Answer: The value was 82 % Ctrl.

Question: And the “% Ctrl @ 3 μM” value [16]?
Answer: The value was 93 % Ctrl.

Question: What about the “% Ctrl @ 3 μM” value [17] of the same molecule?
Answer: Its value is 100 % Ctrl.

Question: And the “% Ctrl @ 3 μM” value [18]?
Answer: The value was 80 % Ctrl.

Question: And the “% Ctrl @ 3 μM” value [19]?
Answer: The value was 87 % Ctrl.

Question: What about the “% Ctrl @ 3 μM” value [20] of the same molecule?
Answer: The value was 71 % Ctrl.

Question: What about the “% Ctrl @ 3 μM” value [21] of the same molecule?
Answer: The value was 93 % Ctrl.

Question: And the “% Ctrl @ 3 μM” value [22]?
Answer: Its value is 100 % Ctrl.

Reference: US12637424B2, “Pharmaceutical salt of an arylpyrrole derivative” (SENTINEL ONCOLOGY LIMITED, priority 2020, dated 2026)
